Measurements taken from US20190225650A1, “PEPTIDOMIMETIC MACROCYCLES AND USE THEREOF IN REGULATING HIF1ALPHA” (AILERON THERAPEUTICS, INC., priority 2013, published 2019).
Bridge positions count the residues as written; N and C are the ends. Square brackets hold non-standard residues; d marks the D form. Peptide text beside a SMILES is read from it. R8 = C=CCCCCCC[C@@](C)(N)C(=O)O; S5 = C=CCCC[C@](C)(N)C(=O)O; Nle = CCCC[C@H](N)C(=O)O; Abu = CC[C@H](N)C(=O)O

What was measured:
HRE-bla ME-180 cells [1] = assay: Cell proliferation assay (viability, MTT, 1% FBS); type: cell-based, human
In short: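 Viable cell number was measured with the CellTiter 96 (MTT) kit after compounds were applied for a 16 h normoxic (21% O2) pretreatment, followed by further normoxic or hypoxic (1% O2) culture. Cells: 2×10^4 ME-180 per well, Opti-MEM + 1% FBS, 0.5% DMSO vehicle.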

[2] = molecular target: T1, flag-tagged HIF1α (AA 786-826) / His6-tagged p300 (AA 323-423) complex (Homo sapiens, UniProt Q09472); assay: HIF1α p300 displacement assay (TR FRET, +CHAPS); type: binding; settings: read-out: IC50 (nM) (HIF1α_p300 Displacement + CHAPS)
T1 construct: His6-tagged p300 (AA 323-423); made in house; host or cells: E. coli (pETDuet vector)
In short: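 In this TR-FRET displacement format, peptides compete HIF1α C-terminal transactivation domain off p300-CH. They were preincubated 1 h at room temperature with 300 nM complex in HEPES pH 7.4/NaCl buffer with 7.5 mM CHAPS and 1 mM DTT. Anti-His-D2 (4 nM) and anti-Flag-K (0.5 μM) followed for 2 h, and a one-site fit of the fluorescence ratio gave IC50.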

HRE-bla ME-180 cells [3] = assay: Reporter gene assay (HRE-bla ME-180 HIF reporter, GeneBLAzer); type: cell-based, human; settings: for EC50: 24 hour normoxia
In short: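 A FRET β-lactamase readout of HIF transcription was used. After compound treatment in 0.3% DMSO/media under normoxic conditions, 20 μl of 6× LiveBLAzer-FRET B/G (CCF4-AM) substrate was added. Plates sat 3 hr at room temperature in the dark and were read at 409 Ex/460Em and 409Ex/530Em on a Synergy 2. Inhibition was compared against DMSO vehicle controls, with chetomin as positive control.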

Structure (SMILES) | Viability 1% FBS AVG (MTT V3-24 hr Normoxia) (μM) (HRE-bla ME-180 cells [1]) | IC50 [2] | 18 h Avg % max inhibition at top conc (HIF Rptr-24 hrs normoxia) (μM) (HRE-bla ME-180 cells [3]) | EC50 (HRE-bla ME-180 cells [3])
CCCC[C@H](NC(=O)[C@H](CCC(=O)O)NC(=O)[C@]1(C)CCCC=CCCCCCC[C@@](C)(NC(=O)[C@H](CCC(=O)O)NC(=O)[C@H](CC(=O)O)NC(=O)[C@@H](NC(=O)[C@H](CC(N)=O)NC(=O)[C@@H](NC(=O)[C@]2(C)CCCC=CCCCCCC[C@@](C)(NC(=O)[C@H](CCC(=O)O)NC(=O)[C@H](C)NC(=O)[C@H](CCC(N)=O)NC(=O)[C@H](CC(C)C)NC(=O)[C@H](CC(C)C)NC(C)=O)C(=O)N[C@@H](CC(C)C)C(=O)N[C@@H](CC(C)C)C(=O)N[C@@H](CCCNC(=N)N)C(=O)N[C@@H](C)C(=O)N[C@@H](CC(C)C)C(=O)N[C@@H](CC(=O)O)C(=O)N2)C(C)C)[C@@H](C)CC)C(=O)N[C@@H](C(C)C)C(=O)N[C@@H](CC(C)C)C(=O)N[C@@H](CCCC)C(=O)N[C@@H](CO)C(=O)N[C@@H](CC(C)C)C(=O)N[C@@H](C(C)C)C(=O)N1)C(N)=O [SP-357] (Ac-LLQAE[R8]LLRALD[S5]VNIDE[R8]VL[Nle]SLV[S5]E[Nle]-NH2; staple 6-13, 19-26) | ++++ (≥30: ++++) | ≤ 200 nM | ++ (≤10 but <25: ++) | > 30 µM
CC[C@@H]1NC(=O)[C@H](CC(=O)O)NC(=O)[C@H](Cc2ccc(O)cc2)NC(=O)[C@@](C)(NC(=O)[C@@H](NC(=O)[C@H](CC(C)C)NC(=O)[C@H](CCC(N)=O)NC(=O)[C@@H]2CCCN2C(=O)[C@H](CC(C)C)NC(=O)[C@H](CCC(=O)O)NC(=O)[C@H](CCCCN)NC(=O)[C@@H](NC(=O)[C@H](CCCNC(=N)N)NC(=O)[C@H](CC(=O)O)NC(=O)[C@H](CC(C)C)NC(=O)CNC(=O)[C@H](CCSC)NC(=O)[C@H](CCC(=O)O)NC(=O)[C@]2(C)CCCC=CCCCCCC[C@@](C)(NC(=O)[C@H](CCC(=O)O)NC(=O)[C@H](CC(=O)O)NC(=O)[C@@H](NC(=O)[C@H](Cc3ccccc3)NC(C)=O)[C@@H](C)CC)C(=O)N[C@@H](C(C)C)C(=O)N[C@@H](CC(C)C)C(=O)N[C@@H](CCSC)C(=O)N[C@@H](CO)C(=O)N[C@@H](CC(C)C)C(=O)N[C@@H](C(C)C)C(=O)N2)[C@@H](C)CC)[C@@H](C)O)CCCC=CCCC[C@@](C)(C(=O)N[C@H](C(=O)N[C@@H](CC(N)=O)C(=O)N[C@@H](C)C(N)=O)C(C)C)NC1=O [SP-323] (Ac-FIDE[R8]VLMSLV[S5]EMGLDRIKELPQLT[S5]YD[Abu][S5]VNA-NH2; staple 5-12, 27-31) | ++++ (≥30: ++++) | 200 to 400 nM | + (<10: +) | > 30 µM
CCCC[C@H](NC(=O)[C@H](C)NC(=O)[C@]1(C)CCCC=CCCCCCC[C@@](C)(NC(=O)[C@H](CCC(=O)O)NC(=O)[C@H](CC(=O)O)NC(=O)[C@@H](NC(=O)[C@H](CC(N)=O)NC(=O)[C@@H](NC(=O)[C@H](CCC(N)=O)NC(=O)[C@]2(C)CCCC=CCCC[C@](C)(NC(=O)[C@H](CC(C)C)NC(=O)[C@H](CCC(=O)O)NC(=O)[C@H](CCC(=O)O)NC(=O)CNC(=O)[C@H](CCC(N)=O)NC(=O)[C@H](CC(C)C)NC(=O)[C@H](CC(C)C)NC(C)=O)C(=O)N[C@@H](CCCNC(=N)N)C(=O)N[C@@H](C)C(=O)N[C@@H](CC(C)C)C(=O)N2)C(C)C)[C@@H](C)CC)C(=O)N[C@@H](C(C)C)C(=O)N[C@@H](CC(C)C)C(=O)N[C@@H](CCCC)C(=O)N[C@@H](CO)C(=O)N[C@@H](CC(C)C)C(=O)N[C@@H](C(C)C)C(=O)N1)C(N)=O [SP-363] (Ac-LLQGEEL[S5]RAL[S5]QVNIDE[R8]VL[Nle]SLV[S5]A[Nle]-NH2; staple 8-12, 19-26) | ++++ (≥30: ++++) | > 700 nM | ++ (≤10 but <25: ++) | > 30 µM
CC[C@H](C)[C@H](NC(=O)[C@H](Cc1ccccc1)NC(C)=O)C(=O)N[C@@H](CC(=O)O)C(=O)N[C@@H](CCC(=O)O)C(=O)N[C@@H](CCC(N)=O)C(=O)N[C@H](C(=O)N[C@@H](CC(C)C)C(=O)N[C@@H](CCSC)C(=O)N[C@@]1(C)CCCC=CCCC[C@@](C)(C(=O)N[C@@H](CCSC)C(=O)N[C@@H](C)C(=O)N[C@@H](CC(C)C)C(N)=O)NC(=O)[C@H]([C@@H](C)CC)NC(=O)[C@H](C(C)C)NC(=O)[C@H](CC(C)C)NC1=O)C(C)C [SP-234] (Ac-FIDEQVLM[S5]LVI[S5]MAL-NH2; staple 9-13) | ++++ (≥30: ++++) | 400 to 700 nM | +++ (≤25 but <50: +++) | > 30 µM
CC[C@H](C)[C@H](NC(=O)[C@H](CCCNC(=N)N)NC(=O)[C@H](CC(=O)O)NC(=O)[C@H](CC(C)C)NC(=O)[C@H](C)NC(=O)[C@H](CCSC)NC(=O)[C@]1(C)CCCC=CCCC[C@](C)(NC(=O)[C@H](CCSC)NC(=O)[C@H](CC(C)C)NC(=O)[C@@H](NC(=O)[C@H](Cc2c[nH]cn2)NC(=O)[C@H](CCC(=O)O)NC(=O)[C@H](CC(=O)O)NC(=O)[C@@H](NC(=O)[C@H](Cc2ccccc2)NC(C)=O)[C@@H](C)CC)C(C)C)C(=O)N[C@@H](CC(C)C)C(=O)N[C@@H](C(C)C)C(=O)N[C@@H]([C@@H](C)CC)C(=O)N1)C(N)=O [SP-284] (Ac-FIDEHVLM[S5]LVI[S5]MALDRI-NH2; staple 9-13) | ++++ (≥30: ++++) | 400 to 700 nM | +++ (≤25 but <50: +++) | 5 to 15 µM
CC[C@H](C)[C@H](NC(=O)[C@H](CCCNC(=N)N)NC(=O)[C@H](CC(N)=O)NC(=O)[C@H](CC(C)C)NC(=O)[C@H](C)NC(=O)[C@H](CCSC)NC(=O)[C@]1(C)CCCC=CCCC[C@](C)(NC(=O)[C@H](CCSC)NC(=O)[C@H](CC(C)C)NC(=O)[C@@H](NC(=O)[C@H](C)NC(=O)[C@H](CCC(N)=O)NC(=O)[C@H](CC(=O)O)NC(=O)[C@@H](NC(=O)[C@H](Cc2ccccc2)NC(C)=O)[C@@H](C)CC)C(C)C)C(=O)N[C@@H](CC(C)C)C(=O)N[C@@H](C(C)C)C(=O)N[C@@H]([C@@H](C)CC)C(=O)N1)C(N)=O [SP-270] (Ac-FIDQAVLM[S5]LVI[S5]MALNRI-NH2; staple 9-13) | ++++ (≥30: ++++) | > 700 nM | ++ (≤10 but <25: ++) | > 30 µM
CC[C@@H]1NC(=O)[C@H](CC(=O)O)NC(=O)[C@H](Cc2ccc(O)cc2)NC(=O)[C@@](C)(NC(=O)[C@@H](NC(=O)[C@H](CC(C)C)NC(=O)[C@H](CCC(N)=O)NC(=O)[C@@H]2CCCN2C(=O)[C@H](CC(C)C)NC(=O)[C@H](CCC(=O)O)NC(=O)[C@H](CCCCN)NC(=O)[C@@H](NC(=O)[C@H](CCCNC(=N)N)NC(=O)[C@H](CC(=O)O)NC(=O)[C@H](CC(C)C)NC(=O)CNC(=O)[C@H](CCSC)NC(=O)[C@]2(C)CCCC=CCCC[C@](C)(NC(=O)[C@H](CCSC)NC(=O)[C@H](CC(C)C)NC(=O)[C@@H](NC(=O)[C@H](CCC(=O)O)NC(=O)[C@H](CCC(=O)O)NC(=O)[C@H](CC(=O)O)NC(=O)[C@@H](NC(=O)[C@H](Cc3ccccc3)NC(C)=O)[C@@H](C)CC)C(C)C)C(=O)N[C@@H](CC(C)C)C(=O)N[C@@H](C(C)C)C(=O)N[C@@H]([C@@H](C)CC)C(=O)N2)[C@@H](C)CC)[C@@H](C)O)CCCC=CCCC[C@@](C)(C(=O)N[C@H](C(=O)N[C@@H](CC(N)=O)C(=O)N[C@@H](C)C(N)=O)C(C)C)NC1=O [SP-321] (Ac-FIDEEVLM[S5]LVI[S5]MGLDRIKELPQLT[S5]YD[Abu][S5]VNA-NH2; staple 9-13, 27-31) | ++++ (≥30: ++++) | 200 to 400 nM | +++ (≤25 but <50: +++) | 15 to 30 µM
CCCC[C@H](NC(=O)[C@@]1(C)CCCC=CCCCC2(CCCC=CCCC[C@](C)(NC(=O)[C@H](CCC(=O)O)NC(=O)[C@H](CC(=O)O)NC(=O)[C@@H](NC(=O)[C@H](Cc3ccccc3)NC(C)=O)[C@@H](C)CC)C(=O)N[C@@H](C(C)C)C(=O)N[C@@H](CC(C)C)C(=O)N[C@@H](CCC(=O)O)C(=O)N2)C(=O)N[C@@H](CC(C)C)C(=O)N[C@@H](C(C)C)C(=O)N[C@@H]([C@@H](C)CC)C(=O)N1)C(=O)N[C@@H](C)C(=O)N[C@@H](CC(C)C)C(N)=O (stereo partly drawn) [SP-205] | ++++ (≥30: ++++) | 200 to 400 nM | + (<10: +) | > 30 µM
CC[C@H](C)[C@H](NC(=O)[C@H](Cc1ccccc1)NC(C)=O)C(=O)N[C@@H](CC(=O)O)C(=O)N[C@@H](CCC(=O)O)C(=O)N[C@@H](CC(N)=O)C(=O)N[C@H](C(=O)N[C@@H](CC(C)C)C(=O)N[C@@H](CCSC)C(=O)N[C@@]1(C)CCCC=CCCC[C@@](C)(C(=O)N[C@@H](CCSC)C(=O)N[C@@H](C)C(=O)N[C@@H](CC(C)C)C(N)=O)NC(=O)[C@H]([C@@H](C)CC)NC(=O)[C@H](C(C)C)NC(=O)[C@H](CC(C)C)NC1=O)C(C)C [SP-235] (Ac-FIDENVLM[S5]LVI[S5]MAL-NH2; staple 9-13) | ++++ (≥30: ++++) | > 700 nM | +++ (≤25 but <50: +++) | 15 to 30 µM
